What was measured:
M. smegmatis mc^2155 = assay: Effect of nutrient supplementation upon mycothiol intermediate levels and growth; type: cell-based, Mycobacterium smegmatis
Protocol: To test whether an increase in cellular Ins content would influence the levels of MSH or potential MSH intermediates, we examined M. smegmatis mc^2155 incubated with Ins. We initially tested Ins uptake by adding 37 μM ^14C-inositol to a culture at A600=1.0 and determining the loss of radiolabel from the medium and its appearance in cells. After 2.5 h, 77% of the counts had been lost from the medium to the cells, showing that M. smegmatis efficiently imports inositol. Next we harvested cells after growth to mid log phase, resuspended them at A600=1.05 in Middlebrook 7H9 media with glucose and 1 MM Ins at 37° C., and took samples for analysis at 0, 0.5 and 2.5 h (FIG. 17A).
To test whether changes in cellular Cys levels would influence MSH or MSH intermediates, we incubated cells in medium containing 10 mM AcCys. Since AcCys is readily taken up by passive diffusion we expected this to produce markedly elevated levels of cellular AcCys and, through deacylation, Cys. […] The Cys-GlcN-Ins content was elevated 20-fold over normal immediately after the start of incubation but then fell a factor of 70 over the next 2.5 h. Least affected was the MSH content which was elevated ˜40% after 2.5 h.

[1] = target: ATP-dependent ligase activity (Mycolicibacterium smegmatis, UniProt A0QZY0); assay: Assay of ATP-dependent ligase activity with GlcN-Ins plus Cys/AcCys in cell extract supernatant; type: biochemical, M. smegmatis; settings: for MSH content / Cys-GlcN-Ins concentration: 100 μM substrate, 50 μM GlcN-Ins, 1 mM ATP; for Cys-GlcN-Ins concentration: pH 7.5, 60 min
anti-mycothiol antibody = assay: ELISA of Example 4: thiol bound to maleimide-activated BSA, detected with affinity-purified anti-MSH antibody; type: binding, rabbit; settings: for ELISA result (recognition by the anti-mycothiol antibody): thiol at the 10 pmol level
Protocol: Known amounts of pure MSH (typically from 0 to 1 pmol/well) were reacted with maleimide-activated BSA (Pierce); maleimide activation levels were 16-19 mol maleimide per mol BSA. The maleimide-activated BSA was reconstituted to 10 mg/ml and this stock solution stored at −70° C. until needed. The stock solution was diluted to a working concentration of 5 ng/μl just before use and kept chilled on ice. MSH from the concentrated stock solution in 0.1% TFA was diluted into TBS (Tris-buffered saline: 0.1 M Tris, pH 7.3, 0.15 M NaCl, 0.04% NaN3) on ice and the diluted samples (40 μl per well) immediately added to the maleimide-activated BSA (60 μl per well). A “zero” standard consisted of TBS in place of an MSH solution. In practice, 168 μl of thiol standard were added to 252 μl of maleimide-activated BSA solution. Samples of unknown thiol content were reacted with maleimide-activated BSA in the same manner, providing a small excess volume for pipetting of quadruplicate samples of 100 μl per well. After 2-hour incubation at room temperature, the thiol-BSA samples were aliquoted (100 μl per well) into Immulon-4 microplate wells and allowed to bind overnight at 4° C. Unbound protein was removed by gentle aspiration with mild vacuum and the wells blocked for 2 hours at room temperature with 1% v/v fish-skin gelatin in TBS. The wells were drained, washed once with TBST (TBS plus 0.05% Tween-20), and drained. Washes involved filling wells to the top with wash buffer followed by gentle aspiration to drain the wells. Primary antibody (affinity-purified anti-MSH, 100 μl per well) was added and the plate incubated for 4 hours at room temperature. The wells were drained, washed twice with TBST, and drained. Secondary antibody (goat anti-rabbit [whole IgG] F(ab′)2 fragments conjugated to bovine intestinal alkaline phosphatase, 100 μl per well) was added and the plate incubated for 1 hour at room temperature. The wells were drained, washed twice with TBST, twice with TBS, and drained. The alkaline phosphatase substrate (3.8 mM p-nitrophenylphosphate in 0.2 M Tris, pH 9.8, 200 μl per well) was added and the plate incubated 30 minutes at room temperature. The reaction was quenched by addition of 50 μl per well stop solution (4 N NaOH). The plate was read at 405 nm on a microplate reader (Model EL311, Bio-Tek Instruments) that was programmed to automatically subtract blank values read from wells that received only the blocking agent, wash solutions, p-nitrophenyl phosphate, and stop solution.
Since reaction of typical cellular constituents with maleimide-BSA is largely limited to thiols, it was considered important to ascertain whether any typical biological thiols would produce false-positive assay results.
In order to test whether the anti-mycothiol antibody recognizes component parts of the mycothiol molecule we also tested the ELISA on N-acetyl-L-cysteine, L-cysteinyl-glucosamine, (2-L-cysteinyl)amido-2-deoxy-α-D-glucopyranose), and N-acetyl-L-cysteinyl-glucosamine (2-N-acetyl-L-cysteinyl)amido-2-deoxy-α-D-glucopyranose).

[2] = type: physicochemical
Protocol: The crude extract was purified by reversed-phase HPLC on a preparative C 18 column, 25 mm×250 mm (Vydac) by isocratic elution with 0.1% trifluoracetic acid (TFA) in ultrapure water at a flow rate of 10 ml/min. Under these conditions MSH eluted as the free thiol at 8 minutes and as its disulfide (MSSM) at 12 minutes. Thiol concentration was determined by titration with DTNB. Purified MSH was stored as a concentrated (0.11 M) stock solution in 0.1% TFA (aqueous), frozen at −70° C.
To produce biotinylated MSH suitable for use as a standard, the following procedure was carried out: 5.0 μL of 3.7 mM pure MSH in 0.1% TFA was added to 12.3 μL 1.5 mM MPB in DMSO/acetonitrile/100 mM phosphate buffer, pH 7.0 (1:4:5). The mixture was allowed to react 1 hour at room temperature. To determine the extent of biotinylation, unreacted MSH was measured by titration with DTNB. The standard was stored in 1.0 μL aliquots frozen at −70° C. For use in ELISA analyses, the standard was diluted to a concentration of 1.0 μM in Tris-buffered saline, pH 7.3, containing 0.04% w/v sodium azide, 0.05% v/v Tween 20 and 0.1% w/v BSA (TBSTB); this solution was stable for several (>6) months when stored refrigerated as indicated by consistency of ELISA measurements.

ATP-dependent ligase activity, sequence (A0QZY0 whole entry): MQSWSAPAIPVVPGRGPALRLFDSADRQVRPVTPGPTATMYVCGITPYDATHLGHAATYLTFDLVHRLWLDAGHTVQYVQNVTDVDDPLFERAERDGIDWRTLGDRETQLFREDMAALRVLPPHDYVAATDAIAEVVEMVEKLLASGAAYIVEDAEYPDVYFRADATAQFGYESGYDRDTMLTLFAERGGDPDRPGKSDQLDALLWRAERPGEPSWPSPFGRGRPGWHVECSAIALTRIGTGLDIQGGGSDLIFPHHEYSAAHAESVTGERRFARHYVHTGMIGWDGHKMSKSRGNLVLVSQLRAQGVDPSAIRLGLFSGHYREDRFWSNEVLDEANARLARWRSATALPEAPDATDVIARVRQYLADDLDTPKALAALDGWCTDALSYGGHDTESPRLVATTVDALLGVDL

## CC(=O)N[C@@H](CS)C(=O)O [AcCys, N-acetyl-cysteine]
M. smegmatis mc^2155; 10 mM AcCys, 2.5 h
  effect on growth: significantly inhibits growth
M. smegmatis mc^2155; 10 mM AcCys, after 2.5 h
  MSH content elevated: ~40%
M. smegmatis mc^2155; 10 mM AcCys, immediately after the start of incubation
  Cys-GlcN-Ins content elevated over normal: 20 fold
M. smegmatis mc^2155; 10 mM AcCys, over the 2.5 h incubation period
  change of A600 value: 5%
M. smegmatis mc^2155; 10 mM AcCys, over the next 2.5 h
  fall of Cys-GlcN-Ins content (factor): 70
M. smegmatis mc^2155; medium containing 10 mM AcCys
  Cys level increased: 50 fold
  H2S level: roughly doubled
  cellular AcCys level elevated over the normal level: 1000 fold
  decrease in GlcN-Ins content: 5- to 10 fold
[1]; 100 μM AcCys, by 60 min
  [Cys]/[AcCys]: ~3
[1]; 60 min
  MSH content: 15 µM
[1]
  Cys-GlcN-Ins concentration: 20 µM
anti-mycothiol antibody
  ELISA result (recognition by the anti-mycothiol antibody): negative

## CC(=O)N[C@@H](CS)C(=O)N[C@@H]1[C@@H](O)[C@H](O)[C@@H](CO)O[C@@H]1O [AcCys-GlcN, 2-(N-acetyl-L-cysteinyl)amido-2-deoxy-α-d-glucopyranoside]
anti-mycothiol antibody; of that for MSH
  sensitivity of the assay relative to that for MSH: about 4%
anti-mycothiol antibody
  ELISA result (recognition by the anti-mycothiol antibody): positive

## N[C@@H](CS)C(=O)O [Cys, L-cysteine]
[1]; 0 min
  MSH content: 15 µM
[1]; 60 min
  MSH content: 13 µM
[1]
  Cys-GlcN-Ins concentration: 26 µM
anti-mycothiol antibody
  ELISA result (recognition by the anti-mycothiol antibody): negative

## N[C@@H](CS)C(=O)N[C@@H]1[C@@H](O)[C@H](O)[C@@H](CO)O[C@@H]1O [Cys-GlcN, 2-(L-cysteinyl)amido-2-deoxy-α-D-glucopyranoside]
anti-mycothiol antibody
  ELISA result (recognition by the anti-mycothiol antibody): negative

## O[C@H]1[C@H](O)[C@@H](O)[C@H](O)[C@@H](O)[C@H]1O [Ins, myo-inositol]
M. smegmatis mc^2155; 1 mM Ins, 37° C., 0 to 2.5 h
  MSH and H2S levels: did not change to a significant extent
M. smegmatis mc^2155; 1 mM Ins, 37° C., at 0.5 h
  GlcN-Ins content relative to normal: about half normal
M. smegmatis mc^2155; 1 mM Ins, 37° C., at 2.5 h
  GlcN-Ins content relative to normal: returning to normal
M. smegmatis mc^2155; 1 mM Ins, 37° C., initially (0 h)
  GlcN-Ins content relative to normal: more than 3 fold
M. smegmatis mc^2155; 1 mM Ins, over the 2.5 h incubation
  increase of A600 value: 40%

## CC(=O)N[C@@H](CS)C(=O)N[C@H]1[C@@H](OC2[C@H](O)[C@H](O)C(O)[C@H](O)[C@H]2O)O[C@H](CO)[C@@H](O)[C@@H]1O (stereo partly drawn) [MSH, 1-D-myo-inosityl-2-(N-acetyl-L-cysteinyl)amido-2-deoxy-α-D-glucopyranoside]
[2]
  stability on storage: stable as the free thiol for many months

## CC(C)(COP(=O)(O)OP(=O)(O)OC[C@H]1O[C@@H](n2cnc3c(N)ncnc32)[C@H](O)[C@@H]1OP(=O)(O)O)[C@@H](O)C(=O)NCCC(=O)NCCS [coenzyme A, reference compound]
anti-mycothiol antibody
  ELISA result (recognition by the anti-mycothiol antibody): negative

## N[C@@H](CCC(=O)N[C@@H](CS)C(=O)NCC(=O)O)C(=O)O [glutathione, reference compound]
anti-mycothiol antibody
  ELISA result (recognition by the anti-mycothiol antibody): negative

## CC(C)(CO)[C@@H](O)C(=O)NCCC(=O)NCCS [pantetheine, reference compound]
anti-mycothiol antibody
  ELISA result (recognition by the anti-mycothiol antibody): negative

## ^14C-inositol [reference compound]
M. smegmatis mc^2155; 37 μM, culture at A600=1.0, after 2.5 h
  counts lost from the medium to the cells (uptake): 77%

Source: patent US6780418B1, “Reagents and immunoassay for the detection and quantitative determination of mycothiol and precursors thereof” (The Regents of the University of California, priority 1997, dated 2004)
